{"source": "patent US7563813B2", "about": "“Iminothiazolidinone derivatives as SFRP-1 antagonists” (Wyeth, priority 2005, dated 2009)", "biological_target": "T1, hSFRP-1 (Homo sapiens, UniProt Q8N474)", "T1 construct": "expressed in transfected cells; host or cells: U2OS osteosarcoma cells (ATCC, HTB 96), transient co-transfection with Wnt 3, Wnt3A or Wnt 1, 16x TCF-tk-Luciferase reporter and CMV-beta-gal", "T1 sequence (Q8N474 32-314)": "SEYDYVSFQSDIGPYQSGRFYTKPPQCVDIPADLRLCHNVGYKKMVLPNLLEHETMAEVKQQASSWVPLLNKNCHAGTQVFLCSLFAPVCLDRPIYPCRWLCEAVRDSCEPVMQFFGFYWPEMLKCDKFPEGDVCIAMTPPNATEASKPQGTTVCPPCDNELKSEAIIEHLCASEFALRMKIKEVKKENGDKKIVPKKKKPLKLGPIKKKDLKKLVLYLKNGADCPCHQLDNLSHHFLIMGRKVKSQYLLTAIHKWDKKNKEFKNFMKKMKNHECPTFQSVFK", "experiment": "Cell-Based Assay for In Vitro Measurement of SFRP-1/SARP2 Antagonist Activity (U2OS cells, 16x TCF-tk-Luciferase reporter, Wnt + hSFRP-1 co-transfection)", "conditions": "initial single dose screening at 10 μM; for fold induction at 10 µM: luciferase reporter activity, fold induction over SFRP-1 control; for Ratio: ratio not defined", "protocol": "Cell-Based Assay for In Vitro Measurement of SFRP-1/SARP2 Antagonist Activity\nThe following cell-based assay can be used to identify inhibitors of SFRP-1.\nThe osteosarcoma cell line, U2OS (ATCC, HTB 96), was passaged twice a week with growth medium (McCoy's SA medium containing 10% (v/v) fetal calf serum, 2 mM GlutaMAX-1, and 1% (v/v) Penicillin-Streptomycin). The cells were maintained in vented flasks at 37° C. inside a 5% CO2/95% humidified air incubator. One day prior to transfection, the cells were plated with growth medium at 25,000 cells/well into 96-well plates and incubated at 37° C. overnight.\nThe growth medium was removed, and the cells were washed once with OPTIMEM I (Gibco-BRL) medium (100 μl/well) to remove the serum and antibiotics. The wash medium was removed, and the cells were re-fed with OPTI-MEM I medium (100 μl/well). For each well of cells to be transfected, the following DNA's were diluted together in 25 μl OPTI-MEM I medium: 0.1 μg 16× TCF-tk-Luciferase reporter, 0.02 μg Wnt 3, Wnt3A, Wnt 1 or empty vector (Upstate Biotechnology), 0.075 μg hSFRP-1 or empty vector (pcDNA3.1, Invitrogen), and 0.025 μg CMV-®gal (Clonetech). For each well of cells to be transfected, 1 μl of Lipofectamine 2000 reagent (Invitrogen) was diluted in 25 μl OPTI-MEM I medium and incubated at room temperature for 5 minutes. The diluted DNA's were then combined with the diluted Lipofectamine 2000 (LF2000), and the mixture was incubated at room temperature for 20 minutes. Fifty μl of the DNA-LF 2000 mixture was added to each well, and the plate(s) were incubated at 37° C. in a 5% CO2/95% humidified air incubator for 4 hours. The cells were washed once with 150 μl/well of experimental medium (phenol red-free RPMI Medium 1640 containing 2% fetal bovine serum, 2 mM GlutaMAX-1, and 1% Penicillin-Streptomycin). Finally, the cells were treated overnight at 37° C. with 200 μl/well of experimental medium containing either vehicle (typically DMSO) or diluted compound in replicates of 8 wells/compound.\nInitial single dose screening of test compounds was done at 10 μM.\nDose-response experiments were initially performed with the compounds in log increases from 1-10,000 nM. From these dose-response curves, EC50 values were generated.\nAfter treatment, the cells were washed twice with 150 μl/well of PBS without calcium or magnesium and were lysed with 50 μl/well of 1× cell culture lysis reagent (Promega Corporation) on a shaker at room temperature for 30 minutes. Thirty μl aliquots of the cell lysates were transferred to 96-well luminometer plates, and luciferase activity was measured in a MicroLumat PLUS luminometer (EG&G Berthold), or a Victor (PerkinElmer Life Sciences) using […] of luciferase substrate (Promega Corporation). Following the injection of substrate, luciferase activity was measured for 10 seconds after a 1.6 second delay. Similarly, 10 μl aliquots of the cell lysates were transferred to separate 96-well luminometer plates, and 50 μl of Galacton chemiluminescent substrate (Tropix) was added to each well. The plates were covered and incubated on a rotary shaker at room temperature for one hour. ®gal activity was measured in a MicroLumat PLUS luminometer or Victor using 100 μl/well of Light Emission Accelerator (Tropix). Following the injection of the accelerator, ®gal activity was measured for 10 seconds after a 1.6 second delay. The luciferase and ®gal activity data were transferred from the luminometer to a PC and analyzed using the SAS/Excel program. After the luciferase activity was normalized to ®gal, the SAS/Excel program was used to determine the mean and standard deviation of each treatment, to analyze the data for statistical significance, and to determine EC50 values.\nAs an alternative to co-transfection in a 96 well plate, the U2OS cells were transfected in T225 flasks and the transfected cells were frozen. The frozen cells were thawed and plated on a 96 well plate and the assay was carried out as detailed above. […]"}
{"smiles": "COC(=O)c1cc(-c2ccccc2)sc1NC(=O)CC1SC(=N)NC1=O", "note": "(stereo not shown) [Example 56, methyl 2-{[(2-imino-4-oxo-1,3-thiazolidin-5-yl)acetyl]amino}-5-phenylthiophene-3-carboxylate]", "values": [{"measurement": "fold induction at 10 µM", "value": 0.9}, {"measurement": "Ratio", "value": 0.9}]}
{"smiles": "COC(=O)c1cc(-c2ccc(Cl)cc2)sc1NC(=O)CC1SC(=N)NC1=O", "note": "(stereo not shown) [Example 57, methyl 5-(4-chlorophenyl)-2-{[(2-imino-4-oxo-1,3-thiazolidin-5-yl)acetyl]amino}thiophene-3-carboxylate]", "values": [{"measurement": "fold induction at 10 µM", "value": 0.9}, {"measurement": "Ratio", "value": 0.8}]}
{"smiles": "CCOC(=O)c1c(NC(=O)CC2SC(=N)NC2=O)sc(-c2ccccc2)c1C", "note": "(stereo not shown) [Example 58, ethyl 2-{[(2-imino-4-oxo-1,3-thiazolidin-5-yl)acetyl]amino}-4-methyl-5-phenylthiophene-3-carboxylate]", "values": [{"measurement": "fold induction at 10 µM", "value": 0.7}, {"measurement": "Ratio", "value": 0.7}]}
{"smiles": "CCOC(=O)c1c(NC(=O)CC2SC(=N)NC2=O)sc(Br)c1CBr", "note": "(stereo not shown) [Example 59, Ethyl 5-bromo-4-(bromomethyl)-2-{[(2-imino-4-oxo-1,3-thiazolidin-5-yl)acetyl]amino}thiophene-3-carboxylate]", "values": [{"measurement": "fold induction at 10 µM", "value": 1.1}, {"measurement": "Ratio", "value": 1.4}]}
{"smiles": "CCOC(=O)c1c(NC(=O)CC2SC(=N)NC2=O)sc(Br)c1CNc1ccccc1", "note": "(stereo not shown) [Example 60, Ethyl 4-(anilinomethyl)-5-bromo-2-{[(2-imino-4-oxo-1,3-thiazolidin-5-yl)acetyl]amino}thiophene-3-carboxylate]", "values": [{"measurement": "fold induction at 10 µM", "value": 2.7}, {"measurement": "Ratio", "value": 2.4}]}
{"smiles": "CCOC(=O)c1c(NC(=O)CC2SC(=N)NC2=O)sc(Br)c1CN(C)c1ccc(Cl)cc1", "note": "(stereo not shown) [Example 61, ethyl 5-bromo-4-{[(4-chlorophenyl)(methyl)amino]methyl}-2-{[(2-imino-4-oxo-1,3-thiazolidin-5-yl)acetyl]amino}thiophene-3-carboxylate]", "values": [{"measurement": "fold induction at 10 µM", "value": 0.7}, {"measurement": "Ratio", "value": 1.0}]}
{"smiles": "CCOC(=O)c1c(NC(=O)CC2SC(=N)NC2=O)sc(Br)c1CNc1ccc(F)cc1", "note": "(stereo not shown) [Example 62, ethyl 5-bromo-4-{[(4-fluorophenyl)amino]methyl}-2-{[(2-imino-4-oxo-1,3-thiazolidin-5-yl)acetyl]amino}thiophene-3-carboxylate]", "values": [{"measurement": "fold induction at 10 µM", "value": 2}, {"measurement": "Ratio", "value": 2.2}]}
{"smiles": "CCOC(=O)c1c(NC(=O)CC2SC(=N)NC2=O)sc(Br)c1CNC1CCCC1", "note": "(stereo not shown) [Example 63, ethyl 5-bromo-4-[(cyclopentylamino)methyl]-2-{[(2-imino-4-oxo-1,3-thiazolidin-5-yl)acetyl]amino}thiophene-3-carboxylate]", "values": [{"measurement": "fold induction at 10 µM", "value": 1.5}, {"measurement": "Ratio", "value": 1.1}]}
